# Measured values reported in patent US5866537A, “Pharmaceutical and/or dietetic compositions with antioxidant activity containing carnosine or derivatives and branched amino acids” (Farmila-Farmaceutici Milano S.R.L., priority 1995, dated 1999).
# Structures can show the parent of a compound that is named as a salt.
# Key:
# Format in all cases: in vivo
# [1] = test system: lipoperoxides content in the liver; test: lipoperoxides content in liver (malonyldialdehyde, Yagi procedure) of rats on hyperlipidemizing and hypercholesterolemizing diet; conditions: male rats, solution as ad libitum drink; for percent variation compared with the control: liver lipoperoxides, 20 days diet; for malonyldialdehyde nmoles/g. of fresh tissue: liver, 20 days hyperlipidemizing and hypercholesterolemizing diet
# Method: (§1) In order to study the pharmacological and/or dietetic characteristics of the compositions according to the present invention, tests were carried out to evaluate the following effects in rats subjected to an ipovitaminic, hyperlipidemizing and hypercholesterolemizing diet (which is known to be capable of promoting the tissue and plasma peroxidation processes):
# 2°) effect of the compositions on the lipoperoxides hepatic content (measured as malonyldialdehyde nmoles/g)
# (§2) 36 Male rats weighing 180-200 g were used.
# (§3) The animals were subjected for 20 days to a standard hyperlipidemizing and hypercolesterolemizing diet consisting of: 20% caseine, a 3.5% mixture of oligoelements and mineral salts, a 0.1% mixture of vitamins, 0.2% choline bitartrate, 2% cellulose powder, 0.5% chloesterol, 0.25. sodium cholate, 62.44% saccharose and 10.9% lard. During that time, the animals were divided into in 6 groups which received as an "ad libitum" available drink:
# (§4) 1° group: control (only water)
# (§5) 2° group: Test A (a 0.75% CARNOSINE aqueous solution)
# (§6) 3° group: Test B (a 0.25% CARNITINE aqueous solution)
# (§7) At end of the test the animals were killed to take both blood samples and the various organs (liver, brain, and heart) on which the lipoperoxides content was evaluated dosing malonyldialdehyde, according to the procedure by Yagi (YAGI K, (1982), in "Lipid peroxides in biology and medicine", Academic Press, New York, pp. 324-40).
# [2] = test system: lipoperoxides content in the heart; test: lipoperoxides content in heart (malonyldialdehyde, Yagi procedure) of rats on hyperlipidemizing and hypercholesterolemizing diet; conditions: male rats, solution as ad libitum drink; for percent variation compared with the control: heart lipoperoxides, 20 days diet; for malonyldialdehyde nmoles/g. of fresh tissue: heart, 20 days hyperlipidemizing and hypercholesterolemizing diet
# Method: as §1
# 4°) effect of the compositions on the lipoperoxides content in the heart (measured as malonyldialdehyde nmoles/g).
# as §2, §3, §4, §5, §6, §7
# [3] = test system: lipoperoxides content in brain; test: lipoperoxides content in brain (malonyldialdehyde, Yagi procedure) of rats on hyperlipidemizing and hypercholesterolemizing diet; conditions: male rats, solution as ad libitum drink; for percent variation compared with the control: brain lipoperoxides, 20 days diet; for malonyldialdehyde nmoles/g. of fresh tissue: brain, 20 days hyperlipidemizing and hypercholesterolemizing diet
# Method: 3°) effect of the compositions on the lipoperoxides cerebral content (measured as malonyldialdehyde nmoles/g)
# as §2, §3, §4, §5, §6, §7
# [4] = test system: lipoperoxides content in the plasma; test: lipoperoxides content in plasma (malonyldialdehyde, Yagi procedure) of rats on hyperlipidemizing and hypercholesterolemizing diet; conditions: male rats, solution as ad libitum drink; for percent variation compared with the control: plasma lipoperoxides, 20 days diet; for malonyldialdehyde: plasma, 20 days hyperlipidemizing and hypercholesterolemizing diet
# Method: as §1
# 1°) effect of the compositions on the lipoperoxides […] content (measured as malonildialdehye nmoles/ml)
# as §2, §3, §4, §5, §6, §7
smiles,measurement,setting,value
"NCCC(=O)N[C@@H](Cc1c[nH]cn1)C(=O)O [Test A, β-alanyl-L-histidine]",percent variation compared with the control,[1],-9.5%
same,malonyldialdehyde nmoles/g. of fresh tissue,[1],39 ± 8 nmoles/g. of fresh tissue
same,percent variation compared with the control,[2],-20.0%
same,percent variation compared with the control,[2]; listed as carnosine,-20%
same,malonyldialdehyde nmoles/g. of fresh tissue,[2],36 ± 7 nmoles/g. of fresh tissue
same,percent variation compared with the control,[3],-12.7%
same,malonyldialdehyde nmoles/g. of fresh tissue,[3],89 ± 7 nmoles/g. of fresh tissue
same,percent variation compared with the control,[4],-14.2%
same,malonyldialdehyde,[4],3.6 ± 0.6 nmol/mL
"C[N+](C)(C)CC(O)CC(=O)[O-] (centres unmarked) [Test B, 3-carboxy-2-hydroxy-N,N,N-trimethyl-1-propanamine inner salt]",percent variation compared with the control,[1],+2.3%
same,malonyldialdehyde nmoles/g. of fresh tissue,[1],43 ± 6 nmoles/g. of fresh tissue
same,percent variation compared with the control,[2],no changes compared with the controls
same,malonyldialdehyde nmoles/g. of fresh tissue,[2],45 ± 4 nmoles/g. of fresh tissue
same,percent variation compared with the control,[3],+3.9%
same,malonyldialdehyde nmoles/g. of fresh tissue,[3],106 ± 5 nmoles/g. of fresh tissue
same,percent variation compared with the control,[4],no effects
same,malonyldialdehyde,[4],4.2 ± 0.8 nmol/mL
